Assay [1] concerns the target T1, Ubiquitin carboxyl-terminal hydrolase 7 (Homo sapiens, UniProt Q93009). Description: Activation of USP7 catalytic domain (208 to 560 residues) (unknown origin) expressed in Escherichia coli BL21(DE3) assessed as Ub-AMC hydrolysis preincubated for 15 mins followed by Ub-AMC addition and measured every 1 min by fluorescence based analysis.
Target sequence in this assay (Q93009 whole entry, the tested form may be a part): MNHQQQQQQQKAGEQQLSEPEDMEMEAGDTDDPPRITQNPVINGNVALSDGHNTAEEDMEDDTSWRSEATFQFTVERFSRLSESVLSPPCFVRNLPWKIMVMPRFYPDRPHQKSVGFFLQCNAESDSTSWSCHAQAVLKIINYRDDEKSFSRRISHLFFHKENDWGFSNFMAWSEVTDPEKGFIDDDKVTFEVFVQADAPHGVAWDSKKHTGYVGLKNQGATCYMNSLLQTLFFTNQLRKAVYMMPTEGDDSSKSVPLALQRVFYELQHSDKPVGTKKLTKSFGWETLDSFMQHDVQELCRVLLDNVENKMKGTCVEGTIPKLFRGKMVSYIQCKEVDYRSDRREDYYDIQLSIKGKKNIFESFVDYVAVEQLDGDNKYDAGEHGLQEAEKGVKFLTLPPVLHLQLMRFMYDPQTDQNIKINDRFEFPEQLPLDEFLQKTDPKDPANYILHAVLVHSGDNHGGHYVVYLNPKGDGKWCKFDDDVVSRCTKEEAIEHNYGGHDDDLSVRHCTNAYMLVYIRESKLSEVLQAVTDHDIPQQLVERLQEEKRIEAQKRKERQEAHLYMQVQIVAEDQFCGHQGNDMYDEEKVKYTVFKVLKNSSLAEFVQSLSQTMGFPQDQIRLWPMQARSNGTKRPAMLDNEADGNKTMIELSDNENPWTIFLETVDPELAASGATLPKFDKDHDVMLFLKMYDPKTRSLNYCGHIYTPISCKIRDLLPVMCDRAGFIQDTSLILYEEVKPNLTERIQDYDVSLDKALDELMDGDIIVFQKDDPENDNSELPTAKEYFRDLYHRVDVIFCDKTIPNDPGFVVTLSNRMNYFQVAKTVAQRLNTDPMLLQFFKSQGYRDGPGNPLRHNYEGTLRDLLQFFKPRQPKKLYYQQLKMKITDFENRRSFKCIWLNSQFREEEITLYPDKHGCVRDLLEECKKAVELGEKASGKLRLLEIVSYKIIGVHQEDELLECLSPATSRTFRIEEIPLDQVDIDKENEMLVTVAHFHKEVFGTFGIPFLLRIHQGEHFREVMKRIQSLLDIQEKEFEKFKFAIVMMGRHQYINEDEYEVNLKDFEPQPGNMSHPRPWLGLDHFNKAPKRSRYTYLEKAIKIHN
The target in assay [2] is T1, Ubiquitin carboxyl-terminal hydrolase 7. Kind of assay: Activation of USP7 catalytic domain (208 to 560 residues) (unknown origin) expressed in Escherichia coli BL21(DE3) assessed as upregulation of Kcat of enzyme using Ub-AMC as substrate at 200 uM preincubated for 15 mins followed by Ub-AMC addition and measured for 1 hr by fluorescence based analysis. The conditions noted are these: filed as activator, time 75.0 min.
Target sequence in this assay (Q93009 whole entry, looked up, the tested form may be a part): as the sequence (Q93009 whole entry, the tested form may be a part) above

For assay [3] the target is unchanged. Kind of assay: Activation of USP7 catalytic domain (208 to 560 residues) (unknown origin) expressed in Escherichia coli BL21(DE3) assessed as decrease in thermal stability of protein at 250 uM by SYPRO orange dye based fluorescence analysis. The conditions noted are these: filed as activator.
Target sequence in this assay (Q93009 whole entry, looked up, the tested form may be a part): as the sequence (Q93009 whole entry, the tested form may be a part) above
The species entered for another assay is Homo sapiens. Description: Binding affinity to MTSL-labeled USP7CD-CTP N1102C mutant (unknown origin) expressed in Escherichia coli BL21(DE3) assessed as complex formation of compound and CTP with switching loop region of USP7 at 200 uM by CPMG spectral analysis. The conditions noted are these: filed as activator.
The target of assay [4] is T1, Ubiquitin carboxyl-terminal hydrolase 7. The conditions noted are these: filed as activator.
Target sequence in this assay (Q93009 whole entry, looked up, the tested form may be a part): as the sequence (Q93009 whole entry, the tested form may be a part) above
Assay [5] shares this target. Particulars: filed as activator, time 15.0 min.
Target sequence in this assay (Q93009 whole entry, looked up, the tested form may be a part): as the sequence (Q93009 whole entry, the tested form may be a part) above
Assay [6] deals with Ubiquitin carboxyl-terminal hydrolase 7 (Homo sapiens), Q93009 [L757P]. Particulars: filed as activator, time 15.0 min.
Assay [7] relates to Ubiquitin carboxyl-terminal hydrolase 7 (Homo sapiens), Q93009 [I766T]. Particulars: filed as activator, time 15.0 min.
For assay [8], the system named is Ubiquitin carboxyl-terminal hydrolase 7 (Homo sapiens), Q93009 [D1080N]. The conditions noted are these: filed as activator, time 15.0 min.

One may read the pEC50 as the EC50 on a negative log10 scale, so that one unit is a factor of ten.

Structures are written as SMILES. pEC50: −log10 of the molar value. The source made the active and inactive calls. The calls are words filed in the database; no cut-off is given here.

Ubiquitin carboxyl-terminal hydrolase 7 (Homo sapiens), Q93009 [I766T], sequence (Q93009 whole entry I766T): as the sequence (Q93009 whole entry, the tested form may be a part) above, with I766T counted along it
Ubiquitin carboxyl-terminal hydrolase 7 (Homo sapiens), Q93009 [L757P], sequence (Q93009 whole entry L757P): as the sequence (Q93009 whole entry, the tested form may be a part) above, with L757P counted along it
Ubiquitin carboxyl-terminal hydrolase 7 (Homo sapiens), Q93009 [D1080N], sequence (Q93009 whole entry D1080N): as the sequence (Q93009 whole entry, the tested form may be a part) above, with D1080N counted along it

As to `COc1ccc(CCN2CCC(Nc3nc4ccccc4n3Cc3ccc(F)cc3)CC2)cc1` [ASTEMIZOLE], in assay [1], the negative logarithm of the EC50 (pEC50) was 4.49. Further, the outcome (in assay [2]; in assay [3]; in the assay filed under Homo sapiens) was Active. For the same molecule, the EC1.5 in [4] is 5.61 µM; in assay [5], 2.19 µM; in assay [6], 8.98 µM; in [7], 1.27 µM; in assay [8], 6.54 µM.

On to `CN[C@H]1CC[C@@H](c2ccc(Cl)c(Cl)c2)c2ccccc21`, for which, in the assay listed under Homo sapiens, the outcome was Active.

The record behind these values is ChEMBL document CHEMBL6134808, “Sertraline and Astemizole Enhance the Deubiquitinase Activity of USP7 by Binding to Its Switching Loop Region” (J Med Chem, 2025).
